Data on four compounds can be found in patent US7803757B2, “Peptides based on the sequence of human lactoferrin and their use” (PharmaSurgics in Sweden AB, priority 1998, dated 2010).

Converted amounts (≈) assume the structure as drawn. Ends that are not written are not given here. A value given as a limit tells only on which side of the number the result lay.

One assay concerns C. albicans. The experiment in a line: microbe, parasite or virus in culture. The class given is cell-based. The settings on record: C. albicans, BHI diluted 1/100, twofold dilutions from 20 μg/ml. The procedure:
(§1) In the examples, the minimal microbicidal concentrations (MMC) and minimal inhibitory concentrations (MIC) were determined as follows, unless otherwise specified in the examples. Bacterial or fungal strains were cultured in BHI medium over night at 37° C. A volume of the culture was transferred to a new tube with BHI and incubated for two more hours. Thereafter the cells were spun down and the pellet was suspended in BHI medium diluted 1/100 (1% BHI). The concentration of bacterial or fungal cells was spectrophotometrically determined at 650 nm. The microbial concentrations were also determined by viable counts. Peptides serially diluted in 1% BHI by twofold or tenfold steps were added in triplicate to the wells of a microtiterplate (200 μl per well). The bacterial or fungal cell solutions were added in 10 μl volumes to give a final concentration of approximately 1-5×10^5 cells per ml in the well. The microplate was incubated at 37° C. in a humid chamber for two hours. Thereafter 5 μl was taken from each well and added as a drop onto a blood agar plate and incubated over night at 37° C. The microplate was incubated for another 20 hours at 37° C. and thereafter analysed spectrophotometrically at 650 nm in a microplate reader (Emax, Molecular Devices, USA). The concentration of peptide causing a 99% reduction of the inoculum after 2 hours of incubation was defined as the MMC99%. The MIC value was defined as the concentration giving no increase in the absorbance value above the background level after 20 hours of incubation.
Also in this example one of the peptides according to the invention—this time the peptide with SEQ. ID. NO. 4, was compared to a conventional fungicide, amphotericin. The antifungal activity against C. albicans was studied. Twofold serial dilutions with a starting concentration of 20 μg/ml were used. BHI diluted 1/100 was used as growth medium.

A further assay concerns C. albicans (ATCC 64549). In words: microbe, parasite or virus in culture. The settings on record: for MMC99%: C. albicans ATCC 64549, 2×10^5 cells/ml, BHI diluted 1/100; for MIC: Candida albicans, ATCC64549. The procedure: as §1
In this example the fungicidal activity of one of the peptides according to the invention, the peptide with SEQ. ID. NO. 7, was compared to the conventional antifungal agents flucytosine and fluconazole, and also to human lactoferrin (hLF). The antifungal agents were tested on C. albicans (ATCC 64549) in a concentration of 2×10^5 cells/ml. The tests were performed in BHI medium diluted 1/100.

Another assay concerns E. faecalis. The experiment in a line: killing of bacteria at fixed peptide concentration, E. faecalis (Example 12). The class given is cell-based. The settings on record: peptide 25 μg/ml. The procedure: (§2) In this example, the peptides according to the invention were used to study the effect on the killing of different bacteria.
(§3) The peptides were used at a concentration of 25 μg/ml.

Another assay deals with multiresistant S. aureus. The experiment in a line: bactericidal activity, multiresistant S. aureus (Example 18). The class given is cell-based. Conditions: multiresistant S. aureus 5.0×10^5 per ml. The procedure: In this example the bactericidal activity of two of the peptides according to the invention was studied in a test with a multiresistant S. aureus. A bacterial solution with a concentration of 5.0×10^5 S. aureus bacterial per ml was used. The concentration of each peptide needed to kill 99% of the bacteria (MMC99%) was determined after 2 hours and after 24 hours of incubation at 37° C.

In a further assay the test system is P. aeruginosa. In words: killing of bacteria at fixed peptide concentration, P. aeruginosa (Example 12). Format: cell-based. The settings on record: peptide 25 μg/ml. The procedure: as §2, §3
Another assay has as its system K. pneumoniae. The experiment in a line: killing of bacteria at fixed peptide concentration, K. pneumoniae (Example 12). Format: cell-based. Conditions: peptide 25 μg/ml. The procedure: as §2, §3
The next assay has as its system C. albicans (ATCC64549). The class given is cell-based. The method in brief: (§4)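 Microbes at ~1–5×10^5 cells/mL in 1% BHI exposed to peptides (1, 10, 25, 100 µg/ml) at 37 °C. MMC99%: concentration killing 99% of inoculum after 2 h, by spotting onto blood agar. MIC: no absorbance rise at 650 nm above background after a further 20 h.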
The next assay concerns E. coli O6. Format: cell-based. In a few lines:
as §4

The subject of assay [1] is C. albicans yeast cells (ATCC64549). The experiment in a line: killing and growth inhibition of C. albicans at pH 4.5 (Example 11). The class given is cell-based. Details: key to C. albicans inhibition (OD650): + = no increase in OD650 is seen; − = OD650 continues to increase. The settings on record: pH 4.5, 1% BHI, 25 μg/ml of the peptide. In a few lines:
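Yeast cells exposed 2 h at pH 4.5 to 25 µg/ml peptide in 1% BHI, then plated on blood agar. Killing scored as 100% and 99% fungicidal effect; growth inhibition read as no OD650 increase after a further 18 h.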

The subject of another assay is S. aureus. The experiment in a line: killing of bacteria at fixed peptide concentration, S. aureus (Example 12). Format: cell-based. Conditions: peptide 25 μg/ml. The procedure:
as §2, §3

For another assay, the system named is S. epidermis. In words: killing of bacteria at fixed peptide concentration, S. epidermis (Example 12). The settings on record: peptide 25 μg/ml. The class given is cell-based. The procedure: as §2, §3

Compound `C[C@@H]1[C@H](O)[C@@H](C)/C=C/C=C/C=C/C=C/C=C/C=C/C=C/[C@H](O[C@@H]2O[C@H](C)[C@@H](O)[C@H](N)[C@@H]2O)C[C@@H]2O[C@](O)(C[C@@H](O)C[C@@H](O)[C@H](O)CC[C@@H](O)C[C@@H](O)CC(=O)O[C@H]1C)C[C@H](O)[C@H]2C(=O)O` [Amphotericin, amphotericin, reference compound] displayed an MMC99% with C. albicans of 2.5 µg/mL. Moreover, the MIC with C. albicans (Candida albicans, read-out: MIC) came out at 0.6 µg/mL (≈ 0.649 µM).
With `OC(Cn1cncn1)(Cn1cncn1)c1ccc(F)cc1F` [Fluconazole, fluconazole, reference compound], in the assay on C. albicans (ATCC 64549), the MMC99% was >500 µg/mL and the MIC is > 500 µg/mL.
As for `Nc1[nH]c(=O)ncc1F` [Flucytosine, flucytosine, reference compound], in the assay on C. albicans (ATCC 64549), the MMC99% was >500 µg/mL and the MIC stood at 250 µg/mL (≈ 1940 µM).
Take KCFQWQRNMRKVR [Peptide 48]: in the assay on E. faecalis, the “killing of bacteria: E. faecalis” value was “+ (+ = 99% of the bacteria are killed)”. The MMC99% is 5.0 µg/mL with multiresistant S. aureus (2 hours at 37° C.); “≦0.32 μg/ml” with multiresistant S. aureus (24 hours at 37° C.); 10 µg/mL with C. albicans (ATCC64549) (C. albicans, tested at 1, 10, 25 and 100 μg/ml of peptide); 10 µg/mL in the assay with E. coli O6 (E. coli O6, tested at 1, 10, 25 and 100 μg/ml of peptide). Also, the “killing of bacteria: P. aeruginosa” value in the assay on P. aeruginosa is on record as “+ (+ = 99% of the bacteria are killed)”. Besides, the “killing of bacteria: K. pneumoniae” value in the assay with K. pneumoniae was “+ (+ = 99% of the bacteria are killed)”. Further, the MIC with C. albicans (ATCC64549) (ATCC64549) and with E. coli O6 (O6) was 10 µg/mL throughout. Further, in assay [1] (OD650 after an additional 18 hours), the “C. albicans inhibition (OD650)” value is “+”. For the same compound, in assay [1] (2 hours), the “C. albicans killing: 99%” value is recorded as “+ (+ = 100/99% of the bacteria are killed)”. The “C. albicans killing: 100%” value in assay [1] (2 hours) was “+ (+ = 100/99% of the bacteria are killed)”. For the same compound, the “killing of bacteria: S. aureus” value with S. aureus is listed as “+ (+ = 99% of the bacteria are killed)”. The “killing of bacteria: S. epidermis” value in the assay on S. epidermis is “+ (+ = 99% of the bacteria are killed)”.
